Data reported in patent publication US9932340B2, “Substituted indoles” (AbbVie Inc., priority 2014, dated 2018).

Target: SUV420H1 enzyme (Homo sapiens, UniProt Q4FZB7)
Experiment: TR-FRET SAH SUV420H1 enzyme inhibition assay
Type: biochemical
Details: Histone Peptide H4(8-30)me1 and SAM, overnight at room temp, TR-FRET detection of SAH, read-out: TR-FRET SAH_SUV420H1 IC50
In short: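 SUV420H1 (90 nM) preincubated 30 min with compound (3-fold dilutions, 50 to 0.00075 μM), then H4(8-30)me1 peptide 5 nM and SAM 4 nM added, overnight at room temp. SAH product detected by TR-FRET with Tb anti-SAH antibody and Oregon Green-SAH in RIPA buffer, 4 h; IC50 from Hill fit, asymptotes fixed 0-100%.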

Sequence of SUV420H1 enzyme (Q4FZB7 whole entry): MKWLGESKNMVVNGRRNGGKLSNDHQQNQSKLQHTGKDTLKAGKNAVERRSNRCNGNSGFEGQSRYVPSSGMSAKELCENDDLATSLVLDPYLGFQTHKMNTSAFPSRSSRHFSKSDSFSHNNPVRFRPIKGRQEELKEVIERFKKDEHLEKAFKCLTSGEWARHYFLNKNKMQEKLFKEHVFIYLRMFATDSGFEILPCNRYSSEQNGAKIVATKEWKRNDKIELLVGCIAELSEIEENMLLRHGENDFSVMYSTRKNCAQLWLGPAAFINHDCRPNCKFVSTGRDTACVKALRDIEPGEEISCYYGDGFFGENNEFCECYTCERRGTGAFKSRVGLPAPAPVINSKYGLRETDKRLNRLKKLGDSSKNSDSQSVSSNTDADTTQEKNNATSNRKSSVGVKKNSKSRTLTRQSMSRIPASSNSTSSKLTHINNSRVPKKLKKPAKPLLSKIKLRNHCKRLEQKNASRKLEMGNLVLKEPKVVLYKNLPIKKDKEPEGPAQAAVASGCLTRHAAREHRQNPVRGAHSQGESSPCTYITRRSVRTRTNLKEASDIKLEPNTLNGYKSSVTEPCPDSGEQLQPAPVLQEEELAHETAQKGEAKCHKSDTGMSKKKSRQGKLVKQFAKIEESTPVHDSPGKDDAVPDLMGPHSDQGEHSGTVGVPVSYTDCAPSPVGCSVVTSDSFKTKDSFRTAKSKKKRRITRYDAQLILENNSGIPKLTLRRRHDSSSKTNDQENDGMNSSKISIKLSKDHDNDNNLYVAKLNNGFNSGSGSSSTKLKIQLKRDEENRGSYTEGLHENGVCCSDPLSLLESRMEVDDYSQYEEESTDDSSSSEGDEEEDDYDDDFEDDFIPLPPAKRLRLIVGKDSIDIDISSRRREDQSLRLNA

Structure (SMILES)	IC50
N#Cc1ccc(C(=O)NCc2cc3cc(C4=CCNCC4)cc(Cn4cnc5c(N)ncnc54)c3[nH]2)c(Cl)c1 [Example 277, N-({7-[(6-amino-9H-purin-9-yl)methyl]-5-(1,2,3,6-tetrahydropyridin-4-yl)-1H-indol-2-yl}methyl)-2-chloro-4-cyanobenzamide]	35.1 nM
N#Cc1ccc(C(=O)NCc2cc3cc(C4=CCC(F)(F)CC4)cc(Cn4cnc5c(N)ncnc54)c3[nH]2)c(Cl)c1 [Example 278, N-({7-[(6-amino-9H-purin-9-yl)methyl]-5-(4,4-difluorocyclohex-1-en-1-yl)-1H-indol-2-yl}methyl)-2-chloro-4-cyanobenzamide]	67.4 nM
CC(=O)N1CC=C(c2cc(Cn3cnc4c(N)ncnc43)c3[nH]c(CNC(=O)c4ccc(C#N)cc4Cl)cc3c2)CC1 [Example 279, N-({5-(1-acetyl-1,2,3,6-tetrahydropyridin-4-yl)-7-[(6-amino-9H-purin-9-yl)methyl]-1H-indol-2-yl}methyl)-2-chloro-4-cyanobenzamide]	49.3 nM
CC(=O)N1CCC=C(c2cc(Cn3cnc4c(N)ncnc43)c3[nH]c(CNC(=O)c4ccc(C#N)cc4Cl)cc3c2)C1 [Example 280]	41.9 nM
CC(=O)N1CCC(c2cc(Cn3cnc4c(N)ncnc43)c3[nH]c(CNC(=O)c4ccc(C#N)cc4Cl)cc3c2)CC1 [Example 281, N-({5-(1-acetylpiperidin-4-yl)-7-[(6-amino-9H-purin-9-yl)methyl]-1H-indol-2-yl}methyl)-2-chloro-4-cyanobenzamide]	141 nM
N#Cc1ccc(C(=O)NCc2cc3c(Cl)ccc(Cn4cnc5c(N)ncnc54)c3[nH]2)c(Cl)c1 [Example 282, N-({7-[(6-amino-9H-purin-9-yl)methyl]-4-chloro-1H-indol-2-yl}methyl)-2-chloro-4-cyanobenzamide]	72.3 nM
N#Cc1cc(Cl)c(C(=O)NCc2cc3cc(Cl)cc(Cn4cnc5c(N)ncnc54)c3[nH]2)c(Cl)c1 [Example 283, N-({7-[(6-amino-9H-purin-9-yl)methyl]-5-chloro-1H-indol-2-yl}methyl)-2,6-dichloro-4-cyanobenzamide]	52.6 nM
N#Cc1ccc(C(=O)NCc2cc3cc(Cl)cc(Cn4cnc5c(N)ncnc54)c3[nH]2)c(F)c1 [Example 284, N-({7-[(6-amino-9H-purin-9-yl)methyl]-5-chloro-1H-indol-2-yl}methyl)-4-cyano-2-fluorobenzamide]	90.8 nM
N#Cc1ccc(C(=O)NCc2cc3cc(C4=CCOCC4)cc(Cn4cnc5c(N)ncnc54)c3[nH]2)c(F)c1 [Example 285, N-({7-[(6-amino-9H-purin-9-yl)methyl]-5-(3,6-dihydro-2H-pyran-4-yl)-1H-indol-2-yl}methyl)-4-cyano-2-fluorobenzamide]	57.9 nM
N#Cc1ccc(C(=O)NCc2cc3cc(C4=CCNCC4)cc(Cn4cnc5c(N)ncnc54)c3[nH]2)c(F)c1 [Example 286, N-({7-[(6-amino-9H-purin-9-yl)methyl]-5-(1,2,3,6-tetrahydropyridin-4-yl)-1H-indol-2-yl}methyl)-4-cyano-2-fluorobenzamide]	41.1 nM

Second part, the compound after the results:

IC50	Structure (SMILES)
87.8 nM	N#Cc1ccc(C(=O)NCc2cc3cc(C4=CCC(F)(F)CC4)cc(Cn4cnc5c(N)ncnc54)c3[nH]2)c(F)c1 [Example 287, N-({7-[(6-amino-9H-purin-9-yl)methyl]-5-(4,4-difluorocyclohex-1-en-1-yl)-1H-indol-2-yl}methyl)-4-cyano-2-fluorobenzamide]
43.1 nM	CC(=O)N1CC=C(c2cc(Cn3cnc4c(N)ncnc43)c3[nH]c(CNC(=O)c4ccc(C#N)cc4F)cc3c2)CC1 [Example 288, N-({5-(1-acetyl-1,2,3,6-tetrahydropyridin-4-yl)-7-[(6-amino-9H-purin-9-yl)methyl]-1H-indol-2-yl}methyl)-4-cyano-2-fluorobenzamide]
61.3 nM	CC(C)(C)OC(=O)N1CC=C(c2cc(Cn3cnc4c(N)ncnc43)c3[nH]c(CNC(=O)c4ccc(C#N)cc4F)cc3c2)CC1 [Example 289, tert-butyl 4-(7-[(6-amino-9H-purin-9-yl)methyl]-2-{[(4-cyano-2-fluorobenzoyl)amino]methyl}-1H-indol-5-yl)-3,6-dihydropyridine-1(2H)-carboxylate]
2800 nM	Cc1cccc(C)c1CNCc1cc2cc(Cl)cc(Cn3cnc4c(N)ncnc43)c2[nH]1 [Example 290, 9-[(5-chloro-2-{[(2,6-dimethylbenzyl)amino]methyl}-1H-indol-7-yl)methyl]-9H-purin-6-amine]
12900 nM	Nc1ncnc2c1ncn2Cc1cc(Cl)cc2cc(CNC(=O)CCc3ccccc3)[nH]c12 [Example 291, N-({7-[(6-amino-9H-purin-9-yl)methyl]-5-chloro-1H-indol-2-yl}methyl)-3-phenylpropanamide]
32200 nM	Cc1ccc(CC(=O)NCc2cc3cc(Cl)cc(Cn4cnc5c(N)ncnc54)c3[nH]2)cc1 [Example 292, N-({7-[(6-amino-9H-purin-9-yl)methyl]-5-chloro-1H-indol-2-yl}methyl)-2-(4-methylphenyl)acetamide]
20500 nM	Cc1cccc(CC(=O)NCc2cc3cc(Cl)cc(Cn4cnc5c(N)ncnc54)c3[nH]2)c1 [Example 293, N-({7-[(6-amino-9H-purin-9-yl)methyl]-5-chloro-1H-indol-2-yl}methyl)-2-(3-methylphenyl)acetamide]
> 50000 nM	Cc1ccccc1CC(=O)NCc1cc2cc(Cl)cc(Cn3cnc4c(N)ncnc43)c2[nH]1 [Example 294, N-({7-[(6-amino-9H-purin-9-yl)methyl]-5-chloro-1H-indol-2-yl}methyl)-2-(2-methylphenyl)acetamide]
607 nM	Cc1cccc(C)c1C(=O)NCc1cc2cc(Cl)cc(Cn3cnc4c(N)ncnc43)c2[nH]1 [Example 295, N-({7-[(6-amino-9H-purin-9-yl)methyl]-5-chloro-1H-indol-2-yl}methyl)-2,6-dimethylbenzamide]
623 nM	CCc1ccccc1C(=O)NCc1cc2cc(Cl)cc(Cn3cnc4c(N)ncnc43)c2[nH]1 [Example 296, N-({7-[(6-amino-9H-purin-9-yl)methyl]-5-chloro-1H-indol-2-yl}methyl)-2-ethylbenzamide]
6040 nM	COc1ccc(CC(=O)NCc2cc3cc(Cl)cc(Cn4cnc5c(N)ncnc54)c3[nH]2)cc1 [Example 297, N-({7-[(6-amino-9H-purin-9-yl)methyl]-5-chloro-1H-indol-2-yl}methyl)-2-(4-methoxyphenyl)acetamide]
5980 nM	COc1ccccc1CC(=O)NCc1cc2cc(Cl)cc(Cn3cnc4c(N)ncnc43)c2[nH]1 [Example 298, N-({7-[(6-amino-9H-purin-9-yl)methyl]-5-chloro-1H-indol-2-yl}methyl)-2-(2-methoxyphenyl)acetamide]
1840 nM	COc1cccc(C)c1C(=O)NCc1cc2cc(Cl)cc(Cn3cnc4c(N)ncnc43)c2[nH]1 [Example 299, N-({7-[(6-amino-9H-purin-9-yl)methyl]-5-chloro-1H-indol-2-yl}methyl)-2-methoxy-6-methylbenzamide]
4150 nM	COc1cc(C(=O)NCc2cc3cc(Cl)cc(Cn4cnc5c(N)ncnc54)c3[nH]2)ccc1C [Example 300, N-({7-[(6-amino-9H-purin-9-yl)methyl]-5-chloro-1H-indol-2-yl}methyl)-3-methoxy-4-methylbenzamide]
